These results are taken from publication PMC9686653, “Bioengineered Nisin A Derivatives Display Enhanced Activity against Clinical Neonatal Pathogens” (Antibiotics, 2022).

The subject of one assay is S. capitis AY41. Nature of the assay: microbe, parasite or virus in culture. It is filed as cell-based, Staphylococcus capitis. As for the experimental part:
(§1) MIC determinations were carried out in triplicate in 96-well microtiter plates (Sarstedt, Newton, NC, USA) as previously described. Initially, 200µL of 1% bovine serum albumin (BSA) (Sigma-Aldrich, St. Louis, MO, USA) (in PBS) was added to the plates which were incubated at 37 °C for 30 min. The solution was removed, plates were washed with 200 µL PBS and then air dried in a laminar flow hood. Target strains (Streptococcus agalactiae, Staphylococcus capitis and Lactococcus lactis) were grown overnight in suitable media under appropriate conditions and were subsequently sub-cultured into fresh broth and allowed to grow to an optical density of ~0.5 (OD600). The culture was then diluted to a final concentration of 10^5 CFU mL^−1 in a volume of 1 mL. The peptides were resuspended in appropriate media to a stock concentration of […] (S. agalactiae and S. capitis strains) and […] (L. lactis strains). Nisin A and nisin derivatives were adjusted to a starting concentration of 15 µM (S. agalactiae and S. capitis strains) or 5 µM (L. lactis strains). […] An aliquot of 100 µL of peptides and or antibiotics were added to the first well, mixed and then 2-fold serial dilutions of each peptide were made in TSBYE broth. Then, 100 µL of target strain was added to each test well, and the plates were incubated at 30 °C or 37 °C for 16 h. The MIC was read as the lowest peptide concentration causing inhibition of visible growth. Experiments were performed in triplicate.

A further assay has as its system S. agalactiae CIT 364. Nature of the assay: Broth MIC assay. It counts as cell-based, Streptococcus agalactiae. The following applies: broth microdilution in TSBYE, 10^5 CFU/mL, 16 h, 37 °C, average of three independent biological repeats. As for the experimental part: as §1
(In general: Broth dilution looks for growth in wells or tubes with falling amounts of substance.)

Another assay concerns S. agalactiae CIT 239. The experiment in a line: Broth MIC assay. It is filed as cell-based, Streptococcus agalactiae. As for the experimental part:
as §1

The test system of the next assay is S. agalactiae CIT 85. Nature of the assay: Broth MIC assay. It counts as cell-based, Streptococcus agalactiae. As for the experimental part: as §1
The test system of a further assay is S. agalactiae CIT 87. The experiment in a line: Broth MIC assay. It is filed as cell-based, Streptococcus agalactiae. The following applies: broth microdilution in TSBYE, 10^5 CFU/mL, 16 h, 37 °C, average of three independent biological repeats. Here is the method:
as §1

The subject of another assay is S. agalactiae CIT 67. Nature of the assay: Broth MIC assay. It counts as cell-based, Streptococcus agalactiae. The following applies: for MIC: broth microdilution in TSBYE, 10^5 CFU/mL, 16 h, 37 °C, average of three independent biological repeats. As for the experimental part:
as §1

Another assay relates to S. capitis BD01. The experiment in a line: Broth MIC assay. It is filed as cell-based, Staphylococcus capitis. Here is the method: as §1
In the next assay the test system is S. capitis strains. The experiment in a line: Broth MIC assay, summary over isolates. It counts as cell-based, Staphylococcus capitis. The note with it: Staphylococcus capitis; span over the isolates the sentence refers to (four or all five). Here is the method:
as §1, with “Then, 100 µL of target strain was added to each test well, and the plates were incubated at 30 °C or 37 °C for 16 h.” left out, “Experiments were performed in triplicate.” left out

Another assay concerns S. capitis AR18. The experiment in a line: Broth MIC assay. The following applies: Staphylococcus capitis. It is filed as cell-based. Here is the method:
as §1

The next assay has as its system S. capitis AV80. The experiment in a line: Broth MIC assay. The note with it: Staphylococcus capitis. It is filed as cell-based. As for the experimental part:
as §1

The subject of the next assay is S. capitis BA06. The experiment in a line: Broth MIC assay. It is filed as cell-based, Staphylococcus capitis. The following applies: Staphylococcus capitis. As for the experimental part: as §1
For assay [1], the system named is clinical isolates of S. agalactiae (n = 5) and S. capitis (n = 5). The experiment in a line: Deferred antagonism agar-based assay. It counts as cell-based, Streptococcus agalactiae, Staphylococcus capitis. The note with it: pathogenic indicators, n = 10. Here is the method: All plates were supplemented with sub-inhibitory concentration (10 µg/L) of nisin in the form of nisaplin to ensure induction of the nisin mutants.
Site-saturation mutagenesis of three codons, including threonine, lysine and methionine, at positions 2, 12 and 17 of the nisA gene, was carried out as described previously. Briefly, pDF23 (pCI372-PV) was used as a template and oligonucleotides, NisT2deg-FOR and REV, NisK12deg-FOR and REV and Nis17deg-FOR and REV, containing an NNK codon potentially encoding for all twenty standard amino acids. Deferred antagonism agar-based assays were employed to assess the bioactivity of the nisin derivatives (PV, K12X-PV, T2X-PV, and M17X-PV) produced by each strain. Briefly, fresh overnight cultures of each L. lactis test culture was replicated on GM17/TSBYE agar plates containing 0.1% nisaplin using a 96-pin replicator (Boekel, Feasterville, PA, USA) and incubated overnight at 30 °C before being exposed to ultraviolet radiation for 45 min. The plates were then overlayed with GM17/TYSBYE agar (0.75% agar) and seeded (0.5% inoculum) with either Lactococcus lactis MG1614 (NSR-), the nisin resistance protein-expressing indicator strain L. lactis MG1614 pNP40 (NSR+) or TSBYE agar seeded with Staphylococcus capitis (NSR+) or Streptococcus agalactiae (NSR+) isolates. […]

A further assay deals with S. agalactiae strains. Nature of the assay: Broth MIC assay, summary over isolates. It counts as cell-based, Streptococcus agalactiae. The note with it: Streptococcus agalactiae, read-out: MIC values over S. agalactiae strains, span over the isolates the sentence refers to (three, four or all five). As for the experimental part:
as §1

[2] abbreviates: broth microdilution in TSBYE, 10^5 CFU/mL, 16 h, 37 °C, average of three independent biological repeats.
Setting [3] is: AR18, broth microdilution in TSBYE, 10^5 CFU/mL, 16 h, 37 °C, average of three independent biological repeats, read-out: MIC.
Setting [4] is: AV80, broth microdilution in TSBYE, 10^5 CFU/mL, 16 h, 37 °C, average of three independent biological repeats, read-out: MIC.
The mark [5] stands for this setting: Staphylococcus capitis, AY41, broth microdilution in TSBYE, 10^5 CFU/mL, 16 h, 37 °C, average of three independent biological repeats, read-out: MIC.
The mark [6] stands for this setting: Streptococcus agalactiae, CIT364, read-out: MIC.
[7] abbreviates: Streptococcus agalactiae, CIT239, broth microdilution in TSBYE, 10^5 CFU/mL, 16 h, 37 °C, average of three independent biological repeats, read-out: MIC.
Where [8] appears, read: Streptococcus agalactiae, CIT85, broth microdilution in TSBYE, 10^5 CFU/mL, 16 h, 37 °C, average of three independent biological repeats, read-out: MIC.
[9] abbreviates: Streptococcus agalactiae, CIT87, read-out: MIC.
Setting [10] is: Streptococcus agalactiae, CIT67, read-out: MIC.
Where [11] appears, read: BA06, broth microdilution in TSBYE, 10^5 CFU/mL, 16 h, 37 °C, average of three independent biological repeats, read-out: MIC.
[12] abbreviates: Staphylococcus capitis, BD01, broth microdilution in TSBYE, 10^5 CFU/mL, 16 h, 37 °C, average of three independent biological repeats, read-out: MIC.

≈ marks a conversion by molar mass, not a printed value. Where two headings read alike, the source gives them in different places. Marks after values point to notes of the source that are not given here.

On to penicillin, for which the MIC in the assay with S. capitis AY41 (setting [2]) was determined as 0.39 µg/mL; with S. agalactiae CIT 364, 0.02 µg/mL; in the assay on S. agalactiae CIT 239 (setting [2]), 0.02 µg/mL; against S. agalactiae CIT 85 (setting [2]), 0.012 µg/mL; with S. agalactiae CIT 87 it was 0.02 µg/mL; against S. agalactiae CIT 67 it was 0.04 µg/mL. Also, in the assay with S. capitis BD01 (setting [2]), the MIC was 6.25 µg/mL.

For `CNC(C)C1CCC(N)C(OC2C(N)CC(N)C(OC3OCC(C)(O)C(NC)C3O)C2O)O1` (stereo not shown) [Gentamicin, gentamicin], the MIC was above 50 µg/mL in the assay on S. capitis strains; above 50 µg/mL with S. capitis AR18 (setting [3]); above 50 µg/mL with S. capitis AV80 (setting [4]); 0.39 µg/mL (≈ 0.817 µM) with S. capitis AY41 (setting [5]); 25 µg/mL (≈ 52.3 µM) in the assay on S. agalactiae CIT 364 (setting [6]); 25 µg/mL (≈ 52.3 µM) with S. agalactiae CIT 239 (setting [7]). Further, the MIC with S. agalactiae CIT 85 (setting [8]) is 6.25 µg/mL (≈ 13.1 µM); with S. agalactiae CIT 87 (setting [9]), 25 µg/mL (≈ 52.3 µM); in the assay with S. agalactiae CIT 67 (setting [10]), 25 µg/mL (≈ 52.3 µM); with S. capitis BA06 (setting [11]) it was above 50 µg/mL; with S. capitis BD01 (setting [12]) it was above 50 µg/mL.

On to `C=C(NC(=O)[C@@H](NC(=O)[C@H](Cc1c[nH]cn1)NC(=O)[C@@H](NC(=O)[C@@H]1CCCN1C(=O)[C@@H]1CS[C@@H](C)[C@H]2NC(=O)[C@H](C)NC(=O)[C@H](NC(=O)[C@H](CCCCN)NC(=O)[C@H](CCSC)NC(=O)[C@H](CC(N)=O)NC(=O)[C@@H]3CS[C@@H](C)[C@@H](NC(=O)[C@H](CCCCN)NC(=O)[C@@H]4CS[C@@H](C)[C@@H](NC(=O)[C@@H]5CSC[C@@H](NC(=O)[C@H](C)NC(=O)[C@@H](N)[C@@H](C)CC)C(=O)N[C@@H]([C@@H](C)CC)C(=O)NC(=C)C(=O)N[C@@H](CC(C)C)C(=O)N5)C(=O)N5CCC[C@H]5C(=O)NCC(=O)N4)C(=O)NCC(=O)N[C@@H](C)C(=O)N[C@@H](CC(C)C)C(=O)N[C@@H](CCSC)C(=O)NCC(=O)N3)[C@H](C)SC[C@H](NC2=O)C(=O)N[C@@H](Cc2c[nH]cn2)C(=O)N1)C(C)C)C(C)C)C(=O)N[C@@H](CCCCN)C(=O)O` [T2A-PV], for which the MIC in the assay on S. capitis AY41 (16 h) is recorded as 12.5 * µg/mL. In the assay with S. capitis AY41 (from MIC), the “fold decrease in potency compared to nisin PV” value came out at 2 fold and the “fold increase in potency compared to nisin A” value is 2 fold. In the assay with S. agalactiae CIT 67 (from MIC), the “fold decrease in specific activity compared to nisin A” value is 2 fold and the “fold decrease in specific activity compared to nisin PV” value is 4 fold. Also, the “bioactivity (zone of inhibition) of the producing strain” value in assay [1] is “not apparent against the pathogenic isolates”.

Regarding `CC[C@H]1OC(=O)[C@H](C)[C@@H](O[C@H]2C[C@@](C)(OC)[C@@H](O)[C@H](C)O2)[C@H](C)[C@@H](O[C@@H]2O[C@H](C)C[C@H](N(C)C)[C@H]2O)[C@](C)(O)C[C@@H](C)C(=O)[C@H](C)[C@@H](O)[C@]1(C)O` [Erythromycin, erythromycin], the MIC was 0.78 to 3.13 µg/mL (≈ 1.06 to 4.26 µM) with S. agalactiae strains; 0.097 µg/mL (≈ 0.132 µM) in the assay on S. capitis AR18 (setting [3]); 12.5 µg/mL (≈ 17 µM) in the assay with S. capitis AV80 (setting [4]); 0.195 µg/mL (≈ 0.266 µM) in the assay with S. capitis AY41 (setting [5]); 0.78 µg/mL (≈ 1.06 µM) with S. agalactiae CIT 364 (setting [6]); 1.56 µg/mL (≈ 2.13 µM) in the assay on S. agalactiae CIT 239 (Streptococcus agalactiae, CIT239, 16 h). Besides, the MIC worked out at 3.13 µg/mL (≈ 4.26 µM) in the assay on S. agalactiae CIT 85 (Streptococcus agalactiae, CIT85, 16 h); 0.39 µg/mL (≈ 0.531 µM) in the assay with S. agalactiae CIT 87 (setting [9]); 1 µg/mL (≈ 1.36 µM) in the assay with S. agalactiae CIT 67 (setting [10]); 12.5 µg/mL (≈ 17 µM) with S. capitis BA06 (setting [11]); 6.25 µg/mL (≈ 8.52 µM) in the assay on S. capitis BD01 (setting [12]).

As for `CN[C@H](CC(C)C)C(=O)N[C@H]1C(=O)N[C@@H](CC(N)=O)C(=O)N[C@H]2C(=O)N[C@H]3C(=O)N[C@H](C(=O)N[C@H](C(=O)O)c4cc(O)cc(O)c4-c4cc3ccc4O)[C@H](O)c3ccc(c(Cl)c3)Oc3cc2cc(c3O[C@@H]2O[C@H](CO)[C@@H](O)[C@H](O)[C@H]2O[C@H]2C[C@](C)(N)[C@H](O)[C@H](C)O2)Oc2ccc(cc2Cl)[C@H]1O` [Vancomycin, vancomycin], the MIC in the assay on S. capitis AR18 (AR18, 16 h) was 1.56 µg/mL (≈ 1.08 µM); with S. capitis AV80 (AV80, 16 h), 3.13 µg/mL (≈ 2.16 µM); in the assay with S. capitis AY41 (Staphylococcus capitis, AY41, 16 h), 1.56 µg/mL (≈ 1.08 µM); with S. capitis BA06 (BA06, 16 h), 1.56 µg/mL (≈ 1.08 µM); in the assay on S. capitis BD01 (Staphylococcus capitis, BD01, 16 h), 3.13 µg/mL (≈ 2.16 µM).

For `CC1(C)S[C@@H]2[C@H](NC(=O)[C@H](N)c3ccccc3)C(=O)N2[C@H]1C(=O)O` [Ampicillin, ampicillin], the MIC with S. agalactiae strains is 0.78 to 1.56 µg/mL (≈ 2.23 to 4.46 µM); in the assay with S. agalactiae CIT 364 (setting [6]), 0.78 µg/mL (≈ 2.23 µM); with S. agalactiae CIT 239 (setting [7]), 0.097 µg/mL (≈ 0.278 µM); in the assay with S. agalactiae CIT 85 (setting [8]), 0.097 µg/mL (≈ 0.278 µM); in the assay on S. agalactiae CIT 87 (setting [9]), 0.78 µg/mL (≈ 2.23 µM); in the assay with S. agalactiae CIT 67 (setting [10]), 1.56 µg/mL (≈ 4.46 µM).
